Measured values: patent US5665886A, “Salts of substituted nitrogenous heteroaromatic compounds, a process for their preparation and pharmaceutical compositions containing them” (Sanofi, priority 1994, dated 1997)

Test system: substance P receptor NK1
Assay: Binding (inhibition of fixation) of [125I]BH-SP to NK1 receptors in rat cortex, guinea pig ileum and human lymphoblastic cells
Protocol: The affinity of compounds for tachykinin receptors has been evaluated in vitro by a number of biochemical tests using radioligands: 1) Bonding of [^125 I]BH-SP (substance P labelled with iodine-125 using a Bolton-Hunter reagent) to NK1 receptors in the rat cortex, the guinea pig ileum and human lymphoblastic cells. The tests were carried out as described in X. Emonds et al., (Eur. J. Pharmacol., 1993, 250, 403-413).

Row | SMILES | antagonism of substance P receptor NK1
1 | CC(C)Oc1cccc(CC(=O)N(C)CC(CC[n+]2ccc(Cc3ccccc3)cc2)c2ccc(Cl)c(Cl)c2)c1 (centres unmarked) [Example 2, 4-benzyl-1-[3-(3,4-dichlorophenyl)-4)-4-[N-methyl-(3-iso-propyloxyphenyl)acetylamino]butyl]pyridinium methanesulfonate dihydrate] | powerful antagonists
2 | CC(C)Oc1cccc(CC(=O)N2CCCC(CC[n+]3ccc(Cc4ccccc4)cc3)(c3ccc(Cl)c(Cl)c3)C2)c1.O.O.[Cl-] (centres unmarked) [Example 4, 4-benzyl-1-[2-[3-(3,4-dichlorophenyl)-1-[(3-isopropoxyphenyl)-acetyl]piperidin-3-yl]ethyl]pyridinium chloride dihydrate] | powerful antagonists
